Reference: US9409880B2, “Modulators of TLR3/dsRNA complex and uses thereof” (The Regents of the University of Colorado, a body corporate, priority 2011, dated 2016)

Columns and labels:
TLR3 = target: T1, TLR3 (Homo sapiens, UniProt O15455); assay: Fluorescence anisotropy assay, competition with Rhodamine labeled Poly IC; format: binding
T1 construct: purchased R &D
T1 sequence (O15455 24-904): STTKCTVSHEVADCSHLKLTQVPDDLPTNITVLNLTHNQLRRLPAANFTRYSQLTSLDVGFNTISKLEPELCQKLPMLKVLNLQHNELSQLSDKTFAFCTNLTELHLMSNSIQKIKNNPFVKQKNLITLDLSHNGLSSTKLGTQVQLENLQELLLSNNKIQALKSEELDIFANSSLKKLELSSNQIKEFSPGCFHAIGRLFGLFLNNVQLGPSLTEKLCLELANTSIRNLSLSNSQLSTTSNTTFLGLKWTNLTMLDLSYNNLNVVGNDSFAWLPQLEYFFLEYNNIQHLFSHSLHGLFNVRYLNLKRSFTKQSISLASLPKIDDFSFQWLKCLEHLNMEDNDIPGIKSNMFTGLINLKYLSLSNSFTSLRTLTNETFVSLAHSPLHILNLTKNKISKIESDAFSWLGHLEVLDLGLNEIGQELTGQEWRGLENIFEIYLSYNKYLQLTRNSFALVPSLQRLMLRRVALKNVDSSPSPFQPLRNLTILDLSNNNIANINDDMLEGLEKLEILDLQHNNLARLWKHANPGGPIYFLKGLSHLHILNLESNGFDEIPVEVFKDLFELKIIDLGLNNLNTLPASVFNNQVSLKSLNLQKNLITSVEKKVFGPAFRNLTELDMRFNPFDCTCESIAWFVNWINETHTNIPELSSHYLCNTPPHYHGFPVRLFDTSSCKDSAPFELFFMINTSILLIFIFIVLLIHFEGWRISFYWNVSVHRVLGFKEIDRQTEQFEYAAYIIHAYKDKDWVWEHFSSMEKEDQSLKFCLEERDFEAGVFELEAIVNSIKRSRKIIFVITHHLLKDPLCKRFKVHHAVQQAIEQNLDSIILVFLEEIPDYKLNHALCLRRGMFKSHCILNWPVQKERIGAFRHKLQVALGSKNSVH
Method: The anisotropy of Rhodamine labeled Poly IC increased from approximately 0.116 to 0.171 upon addition of TLR3 (excitation=546 nm; emission=576 nm).
In 500 μL Tris buffer (pH=7.2) add 5 μL (1 μg/mL) Rhodamine labeled Poly IC (Invivogen), test the anisotropy at excitation of 546 nm and emission of 576 nm (Horiba Fluorolog 3). An addition 3 μL (20 μM) of TLR3 (R &D) was added in the buffer, then test the anisotropy again. Following, 4a was added in the buffer from 0 to 68 μM, and the fluorescence anisotropy was tested when the concentration was changed.

TLR2/6 = target: T2, TLR2/6 (Mus musculus, UniProt Q9EPW9+Q9QUN7); assay: RAW264.7 cell nitric oxide TLR selectivity assay (FSL-1); format: cell-based; settings: 27 μM
T2 construct: endogenous in cells; host or cells: RAW 264.7
T2 sequence (Q9QUN7 25-784): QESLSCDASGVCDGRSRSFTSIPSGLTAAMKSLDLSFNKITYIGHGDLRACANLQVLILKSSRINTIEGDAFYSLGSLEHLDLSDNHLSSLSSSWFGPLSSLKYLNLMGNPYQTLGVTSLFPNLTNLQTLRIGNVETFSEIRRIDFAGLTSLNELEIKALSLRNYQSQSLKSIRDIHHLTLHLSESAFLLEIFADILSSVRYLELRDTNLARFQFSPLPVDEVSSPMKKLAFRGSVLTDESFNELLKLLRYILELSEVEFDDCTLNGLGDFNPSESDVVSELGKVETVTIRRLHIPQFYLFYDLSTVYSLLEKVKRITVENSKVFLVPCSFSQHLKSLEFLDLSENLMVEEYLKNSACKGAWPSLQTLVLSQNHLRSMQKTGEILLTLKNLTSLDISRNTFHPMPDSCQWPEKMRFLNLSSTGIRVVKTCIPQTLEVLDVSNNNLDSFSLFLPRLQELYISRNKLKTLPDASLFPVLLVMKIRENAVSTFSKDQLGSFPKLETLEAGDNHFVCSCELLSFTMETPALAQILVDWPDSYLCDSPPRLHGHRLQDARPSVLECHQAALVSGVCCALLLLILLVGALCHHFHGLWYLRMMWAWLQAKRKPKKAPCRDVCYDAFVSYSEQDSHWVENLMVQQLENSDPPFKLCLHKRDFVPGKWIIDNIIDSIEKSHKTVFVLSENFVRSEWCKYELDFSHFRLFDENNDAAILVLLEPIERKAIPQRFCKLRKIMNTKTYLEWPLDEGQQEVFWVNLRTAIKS
T2 sequence (Q9EPW9 28-795): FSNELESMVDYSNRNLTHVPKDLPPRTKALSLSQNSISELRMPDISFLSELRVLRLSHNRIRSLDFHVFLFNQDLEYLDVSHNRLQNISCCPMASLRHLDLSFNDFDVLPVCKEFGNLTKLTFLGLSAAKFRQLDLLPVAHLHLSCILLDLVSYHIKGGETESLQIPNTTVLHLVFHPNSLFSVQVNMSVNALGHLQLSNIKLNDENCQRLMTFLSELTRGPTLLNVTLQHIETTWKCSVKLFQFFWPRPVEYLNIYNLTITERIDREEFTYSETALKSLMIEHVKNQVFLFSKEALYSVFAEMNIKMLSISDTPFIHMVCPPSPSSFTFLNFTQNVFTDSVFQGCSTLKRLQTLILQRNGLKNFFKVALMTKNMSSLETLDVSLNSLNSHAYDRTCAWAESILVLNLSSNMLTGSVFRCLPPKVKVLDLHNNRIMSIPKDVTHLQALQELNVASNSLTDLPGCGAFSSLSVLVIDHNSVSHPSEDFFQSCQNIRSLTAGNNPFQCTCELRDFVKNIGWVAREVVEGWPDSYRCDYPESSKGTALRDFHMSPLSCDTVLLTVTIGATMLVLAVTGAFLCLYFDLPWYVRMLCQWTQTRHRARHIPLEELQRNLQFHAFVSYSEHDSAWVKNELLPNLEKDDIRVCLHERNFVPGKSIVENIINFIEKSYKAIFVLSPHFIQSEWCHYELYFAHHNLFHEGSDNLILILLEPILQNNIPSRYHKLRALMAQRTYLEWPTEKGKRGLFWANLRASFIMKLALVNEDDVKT

[1] = tested on: poly IC-induced impaired re-endothelialization; assay: Vascular repair: re-endothelialization after carotid artery denudation; format: in vivo, Mice; settings: 27 μg i.p. every 48 hours; 100 μg poly IC i.v.; Evan's blue staining
Method: Mice were subjected to a 4 mm long electric denudation of the left common carotid artery. These C57B1/6J littermates were then treated with 100 μg of poly IC or vehicle (NaCl 0.9%) via i.v. injection every 48 hours for five days. Half of the mice in each group were also treated with 27 μg compound 4a or vehicle (DMSO) via i.p. injection every 48 hours. The mice were then sacrificed and aortic arch including both common carotid arteries excised. The remaining endothelial lesion was visualized using Evan's blue staining.

TLR3 binding competition with dsRNA (TLR3): competes with dsRNA in binding to TLR3
Ki (TLR3; competes with dsRNA for binding to TLR3): 2960 ± 320 nM
SMILES: O=C(N[C@H](Cc1ccccc1)C(=O)O)c1sc2cc(F)ccc2c1Cl [Compound 4a, (R)-2-(3-chloro-6-fluorobenzo[b]thiophene-2-carboxamido)-3-phenylpropanoic acid]
anisotropy of Rhodamine labeled Poly IC (TLR3; compound concentration increased to 68 μM): decreased the anisotropy to background levels
effect on TLR2/6 signaling (TLR2/6): without significantly affecting other TLRs
poly IC-induced impaired re-endothelialization [1]: significantly improves poly IC-induced impaired re-endothelialization
